Source: patent US10016414B2, “Modulation of ubiquitination of synaptic proteins for the treatment of neurodegenerative and psychiatric disorders” (UNIVERSITY OF MASSACHUSETTS, priority 2010, dated 2018)

Key:
[1] = test system: colocalization of β-adaptin with PSD-95; assay: Colocalization of β-adaptin with PSD-95 puncta in cultured hippocampal neurons; assay type: cell-based, rat; settings: roscovitine 10 μM, 45 min; control 100%±15.6%; n=5; mean±SEM
Protocol: C. […] Representative confocal images from each condition are shown; β-adaptin and PSD-95 (scale bars, 10 μm). […] The number of costained puncta, as a percentage of total number of PSD-95 puncta, is expressed as a percentage of the number for DMSO control.
(§1) Dissociated hippocampal cultures were prepared from E17-E18 rat brains as described previously (Zhang et al., 2008). Hippocampal neurons were plated on coverslips coated with poly-D-lysine and laminin at a density of 6600/cm2 and grown in Neurobasal medium supplemented with B27 and GlutaMax (Invitrogen) for 17-21 days in vitro (DIV). […] Images from each experiment were thresholded using identical values and analyzed by MetaMorph software. The colocalization was expressed as mean±S.E.M. and statistically compared using Student's t-test.
To assess whether PSD-95 monoubiquitination correlates with increased PSD-95 interaction with AP-2 in vivo, p35 knockout mice were analyzed, which have increased PSD-95 monoubiquitination. PSD-95 immunoprecipitated from brain lysates of p35 knockout and wildtype littermates was analyzed by β-adaptin immunoblot (FIG. 4B).

[2] = test system: colocalization of Mdm2 with PSD-95; assay: Colocalization of Mdm2 with PSD-95 puncta in cultured hippocampal neurons (immunocytochemistry); assay type: cell-based, rat; settings: roscovitine 10 μM, 45 min; control 100%±24.8%; n=4; mean±SEM
Protocol: Representative confocal images from each condition are shown; Mdm2 (green) and PSD-95 (red) (scale bars, 10 μm). […] The number of costained puncta, as a percentage of total PSD-95 puncta, are expressed as a percentage of the number for DMSO controls.
as §1
Mdm2 has been identified as the ubiquitin ligase for PSD-95 in ubiquitination assays and in transfected Mdm2 knockout mouse embryonic fibroblasts (Colledge et al., 2003). […] To investigate whether Cdk5 regulates the interaction between Mdm2 and PSD-95, PSD-95 immunoprecipitated from brain lysates was analyzed in p35 knockout mice and wild-type littermates by immunoblotting with an Mdm2 antibody (FIG. 2A). […]

PSD-95 protein levels = PSD-95 protein levels in acute forebrain slices (immunoblot, normalized to actin); assay type: cell-based, mouse; settings: roscovitine 10 μM, 45 min; control 100%±15.8%; n=3; p>0.5
Protocol: PSD-95 immunoreactivity was normalized to that of actin and expressed as a percentage of DMSO control.
Brains of adult p35 knockout mice and control littermates were gifts of Dr. Li-Huei Tsai (MIT). Brain lysates were prepared according to Zhang et al., (2008). Briefly, brains (without cerebellum) were first homogenized and lysed in 1% deoxycholate (DOC) lysis buffer (150 mM NaCl, 1% DOC, 50 mM Tris, pH 8.8), to which an equal volume of modified radioimmunoprecipitation assay (RIPA) buffer was added (150 mM NaCl, 1 mM ethylenediaminetetraacetic acid (EDTA), 1% Triton X-100, 0.1% SDS, 50 mM Tris/HCl pH 7.4) (Kalia et al., 2006). […] Protein concentrations of the lysates were determined by Detergent Compatible Protein Assay (Bio-Rad) and lysates (inputs) were analyzed by western blot to determine whether similar amounts of proteins were used in the experiments. […] Western blots were visualized by enhanced chemiluminescence (ECL, Amersham) and immunoreactive bands were digitally scanned and quantified with ImageJ software (NIH). Values were expressed as mean±S.E.M. and statistically compared using Student's t-test.
Acute forebrain slices were prepared as previously described (Patel et al., 2003; Zhang et al., 2008). […] Values were expressed as mean±S.E.M. and statistically compared using analysis of variance (ANOVA). […]

PSD-95 ubiquitination = PSD-95 ubiquitination in acute forebrain slices (PSD-95 immunoprecipitation, ubiquitin/FK1/FK2 immunoblot); assay type: cell-based, mouse; settings: roscovitine 10 μM, 45 min, acute mouse forebrain slices

**Q.** Which results are given for `CC[C@H](CO)Nc1nc(NCc2ccccc2)c2ncn(C(C)C)c2n1` [roscovitine]?
**A.** puncta positive for both PSD-95 and β-adaptin (percentage of DMSO control) [1]: 192.5%±19%; puncta positive for both PSD-95 and Mdm2 (percentage of DMSO control) [2]: 149%±27.4%; PSD-95 protein levels (normalized to actin, percentage of DMSO control) (PSD-95 protein levels): 103.7%±18.7%; increase in PSD-95 ubiquitination (PSD-95 ubiquitination): more than 2 fold; kind of PSD-95 ubiquitination (FK2 immunoreactive, FK1 not) (PSD-95 ubiquitination): increases PSD-95 monoubiquitination on multiple lysines; ubiquitination of PSD-95 (ubiquitin immunoreactivity normalized to immunoprecipitated PSD-95, percentage of DMSO control) (PSD-95 ubiquitination; control 100%±54.5%, n=4, mean±SEM): 274.6%±71.6%
